Peptide text beside a SMILES is read from it. * marks the point of attachment. Boc = CC(C)(C)OC(=O)*
| SMILES | logP |
| --- | --- |
| CCCCCN(C)/N=N/c1ccc(C(N)=O)cc1 | 3.18 |
| CC(=O)c1cn(C)c2ccccc12 | 1.95 |
| CC(=O)OC1(C(=O)CO)CCC2C3CCC4=CC(=O)C=CC4(C)C3C(=O)CC21C (stereo not drawn) | 2.43 |
| O=C1NC(=S)NC(=O)C1C(=O)Nc1ccccc1 | 0.14 |
| c1ccc2[nH]ncc2c1 | 1.77 |
| NC(=S)c1ccccn1 | 1.24 |
| CCCC(C)C1(CC)C(=O)N=C(O)NC1=O (stereo not drawn) | 2.1 |
| CN(C)N=Nc1ccc(CCCC(=O)O)cc1 | 2.62 |
| CN(C)N=Nc1ccc(C(N)=O)cc1 | 1.2 |
| CC1=C(N2CC2)C(=O)C(CCOC(N)=O)=C(N2CC2)C1=O | 0.16 |
| CC(=O)Nc1ccc2c(c1)[nH]c1ccccc12 | 3.02 |
| COc1ccccc1-c1nc(N)nc(N)n1 | 0.58 |
| CN(C)C(=O)Nc1ccc(F)cc1 | 1.13 |
| CON(C)C(=O)Nc1cccc(O)c1 | 0.83 |
| CCCCOCCO | 0.83 |
| CN(C)O | -1.15 |
| NC(=O)CCNC(=O)C(F)(F)Cn1ccnc1[N+](=O)[O-] | -0.95 |
| CC#CC#CC | 2.24 |
| N[C@@H](CCC(=O)O)C(=O)O | -3.69 |
| CCC(C)OC(=O)C(C(=O)OC(C)CC)=C1SCCS1 (stereo not drawn) | 4.53 |
| O=C(O)Cn1cccc1 | 0.7 |

| SMILES | logP |
| --- | --- |
| CNC(=O)Nc1ccc(OC)c(Cl)c1 | 1.76 |
| COC(=O)c1cccnc1 | 0.83 |
| S=C=NCCc1ccccc1 | 3.47 |
| Nc1nnc(Cc2ccccc2)o1 | 0.95 |
| O=[N+]([O-])c1cnc2ccccc2c1 | 1.97 |
| CC12CC(O)C3C(CCC4(O)CC(O)CC(O)C34CO)C1(O)CCC2C1=CC(=O)OC1 (stereo not drawn) | -0.02 |
| OCCCCCc1ccncc1 | 1.39 |
| NC(=O)CCc1ccccc1 | 0.91 |
| CNC1=C(N2CC2)C(=O)C(NC)=C(N2CC2)C1=O | 0.13 |
| COCC1COC(Cn2cncn2)(c2ccc(Cl)cc2Cl)O1 (stereo not drawn) | 2.21 |
| CCC(=O)C1(c2cccc(OC(=O)OCC(C)C)c2)CCN(C)CC1 | 2.38 |
| CN1C(=O)SC(=Cc2ccc([N+](=O)[O-])o2)C1=O | 1.78 |
| S=C1CCCCCN1 | 0.75 |
| CNC(=O)Oc1cccc(Br)c1 | 2.25 |
| CC(C)c1ccc(O)c(=O)cc1 | 1.89 |
| CC(=O)N[C@@H](Cc1c[nH]c2ccccc12)C(=O)N[C@@H](C)C(=O)N[C@H](C(N)=O)C(C)C (Ac-Trp-Ala-Val-NH2) | 0.36 |
| CS(=O)(=O)c1ccc(N)cc1 | -0.12 |
| Brc1ccsc1 | 2.62 |
| Nc1ccc(C(=O)O)c(F)c1 | 1.29 |
| CN(C)N=Nc1cccc(C(F)(F)F)c1 | 3.78 |
| O=C(OCC1CCC(n2cnc3c(=O)[nH]cnc32)O1)c1ccccc1 (stereo not drawn) | 0.66 |

| SMILES | logP |
| --- | --- |
| CC(C)C(NC(=O)C(Cc1ccccc1)NC(=O)OC(C)(C)C)C(=O)O (stereo not drawn) (Boc-Phe-Val-OH; configuration not given here) | 2.88 |
| CC(=O)N[C@@H](C)C(=O)N[C@@H](CC(C)C)C(N)=O (Ac-Ala-Leu-NH2) | -0.54 |
| O=[N+]([O-])c1cccc2cccnc12 | 1.4 |
| Brc1ccc(-c2ccc(Br)cc2)cc1 | 5.72 |
| CCCOP(=O)(OCCC)Oc1ccc(SC)cc1 | 3.67 |
| O=S(=O)(Nc1ccccc1)C(F)(F)F | 3.05 |
| COc1ccccc1OC | 1.6 |
| CC(=O)NC(C(=O)NC(CCC(N)=O)C(N)=O)C(C)C (stereo not drawn) (Ac-Val-Gln-NH2; configuration not given here) | -1.82 |
| COCCN(C)c1ccc(Nn2c(C)ccc2C)nn1 | 2.16 |
| CCCCOCCOCCO | 0.56 |
| CCCC1(c2ccncc2)CCC(=O)NC1=O (stereo not drawn) | 1.13 |
| CCNC(N)=O | -0.74 |
| COc1ccc(S(N)(=O)=O)cc1 | 0.47 |
| N=C(N)NC(=O)Nc1ccc(Cl)cc1 | 1.78 |
| CSCS(=O)CC(CO)NC(=O)C=Cc1c(C)[nH]c(=O)[nH]c1=O (stereo not drawn) | -1.71 |
| c1cc2snnc2c2c1CCNC2 | 1.35 |
| C=O | 0.35 |
| COC(=O)C(Cl)(Cl)Cl | 2.03 |
| OCCc1ccccn1 | 0.12 |
| NC(=O)Nc1cccc(Br)c1 | 2.08 |
| O=C(O)c1cc(Br)ccc1O | 3.23 |

| SMILES | logP |
| --- | --- |
| COC(OC)OC | 0.25 |
| NCC(=O)NCC(=O)O | -2.92 |
| CC(=O)Oc1cccc2cccnc12 | 2.03 |
| NC(=O)Nc1ccccc1 | 0.83 |
| COc1ccc(NC(=O)N(C)C)cc1Cl | 1.64 |
| ClC(Cl)C(c1ccccc1)c1ccccc1 | 4.51 |
| Cn1cccc1C=NNC(=O)Nc1ccccc1 | 2.71 |
| Cn1cccn1 | 0.23 |
| Cc1ccccc1OC(=O)N(C)C | 1.86 |
| COC(=O)Cc1ccsc1 | 1.46 |
| O=C(O)C=Cc1ccc([N+](=O)[O-])cc1 | 2.12 |
| CC1CCC(NC(=O)N(CCCl)N=O)CC1 (stereo not drawn) | 3.3 |
| CCN(CC)c1nc(C)cc(OP(=S)(OC)OC)n1 | 4.2 |
| Cc1ccc2[nH]c(=O)[nH]c(=O)c2c1 | 0.55 |
| NC(=O)CBr | -0.52 |
| CCCCOC(=O)Oc1cccc(C2(C(=O)CC)CCN(C)CC2)c1 | 2.42 |
| O=C(O)Cc1ccccc1Oc1ccc(Cl)cc1Cl | 4.8 |
| OC(O)C(Cl)(Cl)Cl | 0.99 |
| CC(C)SC(C)C | 2.84 |
| CNCc1cccnc1 | 0.39 |
